Data published in ChEMBL document CHEMBL4811290, “Exploiting the hydrophobic channel of the NNIBP: Discovery of novel diarylpyrimidines as HIV-1 NNRTIs against wild-type and K103N mutant viruses” (Bioorg Med Chem, 2021).
In brackets after ≈: the same amount, converted by molar mass. Activity calls are given as the source filed them. No cut-off for these calls is given here.

How the values were obtained:
[1] = system: Human immunodeficiency virus 1; assay: Antiviral activity against HIV1 harboring K103N mutant infected in human MT4 cells assessed as inhibition of virus-induced cytopathic effect incubated for 5 days by MTT assay; type: functional, organism-based; details: Human immunodeficiency virus 1, MT4, 120 h
[2] = system: Human immunodeficiency virus 1; assay: Antiviral activity against HIV1 harboring RT E138K mutant infected in human MT4 cells assessed as inhibition of virus-induced cytopathic effect incubated for 5 days by MTT assay; type: functional, organism-based; details: Human immunodeficiency virus 1, MT4, 120 h
[3] = system: Human immunodeficiency virus 1; assay: Antiviral activity against HIV1 harboring RT RES056 mutant infected in human MT4 cells assessed as inhibition of virus-induced cytopathic effect incubated for 5 days by MTT assay; type: functional, organism-based; details: Human immunodeficiency virus 1, MT4, 120 h
[4] = system: Human immunodeficiency virus 1; assay: Antiviral activity against HIV1 harboring RT L100I mutant infected in human MT4 cells assessed as inhibition of virus-induced cytopathic effect incubated for 5 days by MTT assay; type: functional, organism-based; details: Human immunodeficiency virus 1, MT4, 120 h
[5] = system: Human immunodeficiency virus 1; assay: Antiviral activity against HIV1 harboring RT Y181C mutant infected in human MT4 cells assessed as inhibition of virus-induced cytopathic effect incubated for 5 days by MTT assay; type: functional, organism-based; details: Human immunodeficiency virus 1, MT4, 120 h
[6] = Cytotoxicity against mock-infected human MT4 cells incubated for 5 days by MTT assay; type: cell-based; details: time 5 day
MT4 = assay: Antiviral activity against wild type HIV-2 ROD infected in human MT4 cells assessed as inhibition of virus-induced cytopathic effect measured after 5 days by MTT assay; type: functional, cell-based; details: Human immunodeficiency virus 2, ISOLATE ROD, time 5.0 day
[7] = Selectivity index, ratio of CC50 for human MT4 cells to EC50 for Antiviral activity against HIV-1 IIIB infected in human MT4 cells; type: toxicity, cell-based; details: read-out: Selectivity Index
[8] = system: Human immunodeficiency virus 1; assay: Antiviral activity against HIV1 harboring RT Y188L mutant infected in human MT4 cells assessed as inhibition of virus-induced cytopathic effect incubated for 5 days by MTT assay; type: functional, organism-based; details: Human immunodeficiency virus 1, MT4, 120 h
[9] = system: Human immunodeficiency virus 1; assay: Antiviral activity against HIV1 harboring RT F227L/V106A mutant infected in human MT4 cells assessed as inhibition of virus-induced cytopathic effect incubated for 5 days by MTT assay; type: functional, organism-based; details: Human immunodeficiency virus 1, MT4, 120 h
[10] = system: Human immunodeficiency virus 1; assay: Antiviral activity against wild type HIV-1 IIIB infected in human MT4 cells assessed as inhibition of virus-induced cytopathic effect measured after 5 days by MTT assay; type: functional, organism-based; details: Human immunodeficiency virus 1, IIIB, MT4, 120 h
[11] = Water solubility of compound at pH 2; type: physicochemical
[12] = Water solubility of compound at pH 7.4; type: physicochemical
[13] = Water solubility of compound at pH 7; type: physicochemical
[14] = molecular target: Human immunodeficiency virus type 1 reverse transcriptase (Human immunodeficiency virus 1, UniProt Q72547); assay: Inhibition of HIV-1 reverse transcriptase assessed as inhibition of biotin-dUTP incorporation into cDNA measured after 1 hr by ELISA

Structure (SMILES)	EC50 [1] [nM]	EC50 [2] [nM]	EC50 [3] [µM]	EC50 [4] [nM]	EC50 [5] [nM]	CC50 at 120 h [6] [µM]	Activity (MT4)	selectivity ratio [7]	EC50 [8] [nM]	EC50 [9] [µM]	EC50 [10] [nM]	solubility [11] [µg/mL]	solubility [12] [µg/mL]	solubility [13] [µg/mL]	IC50 [14] [nM]
Cc1cc(C#CC=C2CCN(C(=O)OC(C)(C)C)CC2)cc(C)c1Oc1ccnc(Nc2ccc(C#N)cc2)n1	> 56700	> 56700	> 56.7	984	> 56700	16.7	inactive	26	5560	> 56.7	643				
Cc1cc(C#N)cc(C)c1Oc1nc(Nc2ccc(C#N)cc2)nc(N)c1Br [ETRAVIRINE]		19	0.067	8	20	> 4.61	inactive		21	0.02		< 1			
Cc1cn([C@H]2C[C@H](N=[N+]=[N-])[C@@H](CO)O2)c(=O)[nH]c1=O [ZIDOVUDINE]	22	35	0.024	9	15	> 7.48	inactive	> 352	12	0.01	21				
Cc1cc(C#CC=C2CCN(S(=O)(=O)C3CC3)CC2)cc(C)c1Oc1ccnc(Nc2ccc(C#N)cc2)n1	284	685	> 4.66	> 4660	> 4660	4.66	inactive	47	1410	> 4.66	98				
C=CC(=O)N1CCC(=CC#Cc2cc(C)c(Oc3ccnc(Nc4ccc(C#N)cc4)n3)c(C)c2)CC1	46	240	> 4.1	345	1100	4.1	inactive	116	409	> 4.1	35				
Cc1cc(C#CC=C2CCN(Cc3ccccn3)CC2)cc(C)c1Oc1ccnc(Nc2ccc(C#N)cc2)n1	200	805	> 5.58	> 5580	4250	5.58	inactive	75	1030	> 5.58	74				
CCS(=O)(=O)N1CCC(=CC#Cc2cc(C)c(Oc3ccnc(Nc4ccc(C#N)cc4)n3)c(C)c2)CC1	165	493	> 4.96	1080	> 1350	4.96	inactive	62	1280	> 4.96	79				
Cc1cc(C#CC=C2CCN(Cc3ccccc3C#N)CC2)cc(C)c1Oc1ccnc(Nc2ccc(C#N)cc2)n1	1010	5460	> 227	8540	20400	> 227	inactive	> 604	16100	> 42.4	376				
CCOC(=O)CN1CCC(=CC#Cc2cc(C)c(Oc3ccnc(Nc4ccc(C#N)cc4)n3)c(C)c2)CC1	39000	> 201000	> 201	> 201000	> 201000	201	inactive	29	> 201000	> 201	7050				
Cc1cc(C#CC=C2CCN(S(=O)(=O)N(C)C)CC2)cc(C)c1Oc1ccnc(Nc2ccc(C#N)cc2)n1	209	750	> 4.79	> 4790	> 4790	4.79	inactive	42	> 4790	> 4.79	114				
Cc1cc(C#CC=C2CCN(S(=O)(=O)C(C)C)CC2)cc(C)c1Oc1ccnc(Nc2ccc(C#N)cc2)n1	573	918	> 4.58	> 4580	> 4580	4.58	inactive	27	> 4580	> 4.58	171				
Cc1cc(C#CC=C2CCNCC2)cc(C)c1Oc1ccnc(Nc2ccc(C#N)cc2)n1	39	204	1.46	231	281	4.81	inactive	294	211	1.27	16	47.3 (≈ 109 µM)	67 (≈ 154 µM)	60.5 (≈ 139 µM)	130
CCC(=O)N1CCC(=CC#Cc2cc(C)c(Oc3ccnc(Nc4ccc(C#N)cc4)n3)c(C)c2)CC1	57	171	> 4.42	253	772	4.42	inactive	201	382	1.3	22	64.7 (≈ 132 µM)	66.5 (≈ 135 µM)	62.2 (≈ 127 µM)	2980
Cc1cc(C#CC=C2CCN(Cc3cccc([N+](=O)[O-])c3)CC2)cc(C)c1Oc1ccnc(Nc2ccc(C#N)cc2)n1	510	2150	> 74.6	2770	5550	74.6	inactive	399	5330	26.7	187				
Cc1ccnc2c1NC(=O)c1cccnc1N2C1CC1 [NEVIRAPINE]	6550	258	> 15	2520	10500	> 15	inactive	> 94	> 15000	> 15	160				
COC(=O)c1ccc(CN2CCC(=CC#Cc3cc(C)c(Oc4ccnc(Nc5ccc(C#N)cc5)n4)c(C)c3)CC2)cc1	782	5460	> 33.6	> 33600	> 33600	33.6	inactive	51	> 33600	> 33.6	656				
O=C1Nc2ccc(Cl)cc2[C@@](C#CC2CC2)(C(F)(F)F)O1 [EFAVIRENZ]	103	7	0.332	37	6	> 6.35	inactive		212						
Cc1cc(C#CC=C2CCN(C(=O)N(C)C)CC2)cc(C)c1Oc1ccnc(Nc2ccc(C#N)cc2)n1	86	265	> 4.43	617	799	4.43	inactive	125	521	> 4.43	35				
Cc1cc(C#CC=C2CCN(S(C)(=O)=O)CC2)cc(C)c1Oc1ccnc(Nc2ccc(C#N)cc2)n1	57	170	> 5.49	282	913	5.49	inactive	186	452	> 5.49	29	20.4 (≈ 39.7 µM)	26.6 (≈ 51.8 µM)	27.1 (≈ 52.8 µM)	1980
Nc1ccn([C@H]2CS[C@@H](CO)O2)c(=O)n1	2790	8270	5.06	1150	3400	> 87.2	inactive	> 309	4560	2.17	5230				
